# Measurements taken from ChEMBL document CHEMBL4382234, “Fluoroquinolone-isatin hybrids and their biological activities” (Eur J Med Chem, 2019).
# Experiments:
# Format in all cases: functional
# [1] = tested on: Mycolicibacterium smegmatis; test: Antimycobacterial activity against Mycobacterium smegmatis CMCC 93202 after 72 hrs by double dilution method; conditions: CMCC 93202, 72 h
# [2] = tested on: Mycobacterium tuberculosis; test: Antimycobacterial activity against Mycobacterium tuberculosis H37Rv ATCC 27294 by rapid direct susceptibility test
# [3] = tested on: Mycobacterium tuberculosis; test: Antimycobacterial activity against Mycobacterium tuberculosis H37Rv after 3 to 7 days by rapid direct susceptibility test
# [4] = tested on: Mycobacterium tuberculosis; test: Antitubercular activity against Mycobacterium tuberculosis H37Rv by microplate alamar blue assay
SMILES,MIC [1],MIC [2],MIC [3],MIC [4]
COc1c(N2C[C@@H]3CCCN(CCN4C(=O)/C(=N\NC(N)=S)c5ccccc54)[C@@H]3C2)c(F)cc2c(=O)c(C(=O)O)cn(C3CC3)c12,0.39 to 16 µg/mL,0.39 to 16 µg/mL,–,–
Cc1ccc2c(c1)/C(=N\NC(N)=O)C(=O)N2CCCN1CCN(c2cc3c(cc2F)c(=O)c(C(=O)O)cn3C2CC2)CC1,–,–,0.1 to 64 µg/mL,–
COc1cc(Cc2cnc(/N=C3\C(=O)N(CN4CCN(c5c(F)cc6c(=O)c(C(=O)O)cn(C7CC7)c6c5OC)CC4C)c4ccc(F)cc43)nc2N)cc(OC)c1OC (stereo unspecified),–,–,–,0.78 to 3.13 µg/mL
COc1c(N2C[C@@H]3CCCN(Cc4cn(CCN5C(=O)/C(=N/O)c6ccccc65)nn4)[C@@H]3C2)c(F)cc2c(=O)c(C(=O)O)cn(C3CC3)c12,–,–,0.1 to 0.78 µg/mL,–
COc1c(N2C[C@@H]3CCCN(CCN4C(=O)C(=O)c5ccccc54)[C@@H]3C2)c(F)cc2c(=O)c(C(=O)O)cn(C3CC3)c12,0.39 to 16 µg/mL,0.39 to 16 µg/mL,–,–
COc1c(N2C[C@@H]3CCCN(Cc4cn(CCN5C(=O)C(=O)c6cc(Br)ccc65)nn4)[C@@H]3C2)c(F)cc2c(=O)c(C(=O)O)cn(C3CC3)c12,–,–,0.1 to 0.78 µg/mL,–
CO/N=C1\C(=O)N(CN2CCC[C@H]3CN(c4c(F)cc5c(=O)c(C(=O)O)cn(C6CC6)c5c4OC)C[C@H]32)c2ccccc21,0.39 to 16 µg/mL,0.39 to 16 µg/mL,–,–
COc1c(N2C[C@@H]3CCCN(CN4C(=O)/C(=N\NC(N)=S)c5ccccc54)[C@@H]3C2)c(F)cc2c(=O)c(C(=O)O)cn(C3CC3)c12,0.39 to 16 µg/mL,0.39 to 16 µg/mL,–,–
CCO/N=C1/C(=O)N(CCn2cc(CN3CCC[C@H]4CN(c5c(F)cc6c(=O)c(C(=O)O)cn(C7CC7)c6c5OC)C[C@H]43)nn2)c2ccc(Br)cc21,–,–,0.1 to 0.78 µg/mL,–
Cc1ccc2c(c1)/C(=N\NC(N)=S)C(=O)N2CCCN1CCN(c2cc3c(cc2F)c(=O)c(C(=O)O)cn3C2CC2)CC1,–,–,0.1 to 64 µg/mL,–
COc1c(N2C[C@@H]3CCCN(Cc4cn(CCN5C(=O)/C(=N/O)c6cc(Br)ccc65)nn4)[C@@H]3C2)c(F)cc2c(=O)c(C(=O)O)cn(C3CC3)c12,–,–,0.1 to 0.78 µg/mL,–
CO/N=C1\C(=O)N(CCN2CCC[C@H]3CN(c4c(F)cc5c(=O)c(C(=O)O)cn(C6CC6)c5c4OC)C[C@H]32)c2ccccc21,0.39 to 16 µg/mL,0.39 to 16 µg/mL,–,–
COc1c(N2C[C@@H]3CCCN(CCN4C(=O)/C(=N\O)c5cc(F)ccc54)[C@@H]3C2)c(F)cc2c(=O)c(C(=O)O)cn(C3CC3)c12,0.39 to 16 µg/mL,0.39 to 16 µg/mL,–,–
COc1c(N2C[C@@H]3CCCN(CN4C(=O)/C(=N\O)c5cc(F)ccc54)[C@@H]3C2)c(F)cc2c(=O)c(C(=O)O)cn(C3CC3)c12,0.39 to 16 µg/mL,0.39 to 16 µg/mL,–,–
CCO/N=C1\C(=O)N(CN2CCC[C@H]3CN(c4c(F)cc5c(=O)c(C(=O)O)cn(C6CC6)c5c4OC)C[C@H]32)c2ccccc21,0.39 to 16 µg/mL,0.39 to 16 µg/mL,–,–
Cc1ccc2c(c1)/C(=N\O)C(=O)N2CCCN1CCN(c2cc3c(cc2F)c(=O)c(C(=O)O)cn3C2CC2)CC1,–,–,0.1 to 64 µg/mL,–
COc1c(N2C[C@@H]3CCCN(CCN4C(=O)/C(=N\O)c5ccccc54)[C@@H]3C2)c(F)cc2c(=O)c(C(=O)O)cn(C3CC3)c12,0.39 to 16 µg/mL,0.39 to 16 µg/mL,–,–
COc1c(N2C[C@@H]3CCCN(CN4C(=O)/C(=N\NC(N)=O)c5ccccc54)[C@@H]3C2)c(F)cc2c(=O)c(C(=O)O)cn(C3CC3)c12,0.39 to 16 µg/mL,0.39 to 16 µg/mL,–,–
COc1c(N2C[C@@H]3CCCN(Cc4cn(CCN5C(=O)/C(=N/NC(N)=O)c6cc(Br)ccc65)nn4)[C@@H]3C2)c(F)cc2c(=O)c(C(=O)O)cn(C3CC3)c12,–,–,0.1 to 0.78 µg/mL,–
NC(=O)N/N=C1/C(=O)N(CCCN2CCN(c3cc4c(cc3F)c(=O)c(C(=O)O)cn4C3CC3)CC2)c2ccccc21,–,–,0.1 to 64 µg/mL,–
CC[C@@H](CO)NCCN[C@@H](CC)CO [ETHAMBUTOL],–,–,–,1.88 µg/mL
CCc1cc(C(N)=S)ccn1 [ETHIONAMIDE],–,–,–,2.5 µg/mL
COc1c(N2CCNC(C)C2)c(F)cc2c(=O)c(C(=O)O)cn(C3CC3)c12 (stereo unspecified) [GATIFLOXACIN],–,–,0.5 µg/mL,–
NNC(=O)c1ccncc1 [ISONIAZID],–,–,> 128 µg/mL,0.05 µg/mL
NC[C@H]1O[C@H](O[C@H]2[C@H](O)[C@@H](O[C@H]3O[C@H](CO)[C@@H](O)[C@H](N)[C@H]3O)[C@H](N)C[C@@H]2N)[C@H](O)[C@@H](O)[C@@H]1O [KANAMYCIN],–,–,–,5 µg/mL
COc1c(N2C[C@@H]3CCCN[C@@H]3C2)c(F)cc2c(=O)c(C(=O)O)cn(C3CC3)c12 [MOXIFLOXACIN],0.1 to 1 µg/mL,0.1 to 1 µg/mL,0.1 µg/mL,–
CO[C@H]1/C=C/O[C@@]2(C)Oc3c(C)c(O)c4c(O)c(c(/C=N/N5CCN(C)CC5)c(O)c4c3C2=O)NC(=O)/C(C)=C\C=C\[C@H](C)[C@H](O)[C@@H](C)[C@@H](O)[C@@H](C)[C@H](OC(C)=O)[C@@H]1C [RIFAMPIN],–,–,0.25 to 0.39 µg/mL,0.125 µg/mL
